Experimental data: patent US5804549A, “Compositions with activity against helicobacter” (AMBI Inc., priority 1996, dated 1998)

System: H. pylori strain ATCC 43504
Assay: bactericidal activity: survival of bacteria by viable counts (CFU/ml)
Assay type: cell-based, Helicobacter pylori
Procedure: All tests of bactericidal activity in this example were conducted for 30 minutes at 37° C. The parameter measured was survival of bacteria exposed to GML and/or nisin, as determined by viable counts (colony forming units per ml [CFU/ml]) determined by standard dilution and plating techniques. Media, growth and test conditions were as follows: All cultures of Helicobacter were incubated under microaerobic conditions in GasPak. H. pylori was cultured for 2 to 4 days on Trypticase Soy agar+5% defibrinated sheep blood and then inoculated into NYCIII broth and grown overnight with gentle shaking. [NYCIII broth contains, per liter: 1 g soluble starch (Difco), 15 g proteose peptone #3 (Difco), 5 g NaCl, 4 gK2 HPO4, 1 g KH2 PO4, 5 g glucose, 25 ml fresh yeast extract (Gibco), 120 ml gamma-globulin-free horse serum (Sigma)]. Suspensions for testing the activity of GML and nisin were in 10% sucrose. Viable counts were determined after 3-5 days' growth on Trypticase Soy agar-5% sheep blood.
A suspension of bacteria was divided and exposed to different concentrations of the agents, singly or combined. Survival of bacteria is expressed relative to the unincubated (zero time) control suspension. Nisin alone, at concentrations between 30 and 300 μg/ml, had little or no effect on the viability of H. pylori (survival ≥10%). At concentrations of 1 and 3 μg/ml GML, in the absence of nisin, there was also little or no reduction in the viability of the inoculum (survival≥10%). […] When the bacteria were exposed to 10 μg/ml of GML alone, again more than 10% of the bacteria survived.

nisin
effect on the viability of H. pylori (nisin 30-100 μg/ml administered alone): little effect on the viability | Survival of bacteria relative to the unincubated (zero time) control suspension (nisin alone, 30 to 300 μg/ml, 30 minutes at 37° C., 10% sucrose, no chelator): ≥ 10%

CCCCCCCCCCCC(=O)OCC(O)CO (stereo not drawn) [GML, Glycerol monolaurate]
Survival of bacteria relative to the unincubated (zero time) control suspension (10 μg/ml of GML alone, 30 minutes at 37° C.): more than 10% | effect on the viability of H. pylori (GML 10 μg/ml administered alone): little effect on the viability | Survival of bacteria relative to the unincubated (zero time) control suspension (GML 1 and 3 μg/ml, in the absence of nisin, 30 minutes at 37° C.): ≥ 10% | effect on viability of the bacterial suspensions (GML alone, 30 or 100 μg/ml, 30 minutes at 37° C.): sterilized the bacterial suspensions
